Holding throughout (format): cell-based
Experiment [1] has as its system HCC827 cells (EGFR Exon19 del, non-small cell lung cancer cells). Nature of the experiment: Cell viability assay (WST/CCK8), HCC827 cells. Conditions: Homo sapiens, HCC827, 72 h, HCC827 (Exon19 Del), 72 hours, WST (CCK8), read-out: IC50 (half inhibitory concentration). Summed up: (§1)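 Cells seeded at 3 000/well in RPMI1640 complete medium, dosed next day with compounds (top 10 μM, 3-fold, 10 points) for 72 h. Viability read with WST (CCK8) reagent; DMSO as negative control, EGFR TKIs as positive controls; IC50 determined.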

Experiment [2] relates to PC9 cells (EGFR Exon 19 del, non-small cell lung cancer cells). In words: Cell viability assay (WST/CCK8), PC9 cells. Conditions: Homo sapiens, PC-9, 72 hours, WST (CCK8), read-out: IC50 (half inhibitory concentration). The method in brief: as §1
For experiment [3], the system named is PC9 DCT (Del19+T790M+C797S) cells. In words: Cell viability assay, PC9 cells with EGFR triple mutation. The settings on record: Homo sapiens, PC-9; Table 9; PC9 (Del + T790M + C797S), EGFR triple mutations; read-out: IC50 (half inhibitory concentration). An excerpt: Construction of EGFR triple mutant cell line PC9 DCT (Dell9+T790M+C797S): The cDNA expressing human EGFR was cloned into pLVX vector, and exon 19 deletion mutation (746-750) and T790M mutation were introduced by point mutation and C797S mutation. Transferred into PC9 cells by lentiviral packaging. Cells stably expressing EGFR triple mutations were obtained by fluorescence screening.
The cDNA sequence expressing human EGFR was cloned into a pLVX vector (GFP^+), and then introduce the EGFR exon 19 deletion (746-750), exon 20 T790M and C797S mutations by were generated by site-directed mutagenesis. The PC9 cells were infected with lentivirus containing the indicated EGFR mutations, and the cells stably expressing EGFR triple mutation were obtained by fluorescence screening.
All of the half inhibitory concentrations (IC50) of these compounds of the present invention were determined with WST reagent from Fuyuan Biotec Company. The specific experiment procedures are as follows: Cancer cells were planted in 96-well-plate at the density of 3 000 cells per well with 100 μL RPMI1640 completed culture medium. In the next day, compounds with indicated concentrations were added to the cells, DMSO was used as the negative control and the EGFR TKIs were used to treat cells as the positive groups. After 72 hours drug treatment, cell viability was measured by using the WST reagent following the instructions. The growth inhibition curve of the compounds on cells were plotted by Prism GraphPad, and the compounds IC50 calculated from it.
The cell viability assays were taken to determine the anti-tumor activity of these indicated compounds in PC9 cells, which overexpressed Exon 19del+T790M+C797S triple mutant EGFR.

In experiment [4] the test system is BT474 cells (HER2 positive breast cancer cells). In words: Cell viability assay (CCK8), BT474 cells. Conditions: Homo sapiens, BT-474, Table 10, BT474, 72 hours, read-out: IC50 (half inhibitory concentration). The method in brief: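 HER2-overexpressing BT474 cells in RPMI1640 were exposed to compounds for 72 hours over 10 concentrations (3-fold dilution, top 10 μM). Viability was measured with CCK8 reagent against a DMSO control, and IC50 was taken from growth inhibition curves.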

Experiment [5] concerns PC9BracA1 (EGFR Exon 19 del+T790M, non-small cell lung cancer cells). Nature of the experiment: Cell viability assay (WST/CCK8), PC9Brac1 cells. The settings on record: PC9Brac1 (Ex19del + T790M), 72 hours, WST; read-out: IC50 (half inhibitory concentration). The method in brief: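 Cells seeded at 3 000 per well in RPMI1640 complete medium, dosed next day with compounds at indicated concentrations (DMSO negative control, EGFR TKIs as positive control).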

In experiment [6] the target is T1, EGFR (L858R+T790M) in H1975 cells (Homo sapiens, UniProt P00533, L858R/T790M).
T1 construct: determined in H1975 cells with the EGFR L858R+T790M mutation; endogenous in cells; host or cells: H1975
T1 sequence (P00533 25-1210 T790M/L858R): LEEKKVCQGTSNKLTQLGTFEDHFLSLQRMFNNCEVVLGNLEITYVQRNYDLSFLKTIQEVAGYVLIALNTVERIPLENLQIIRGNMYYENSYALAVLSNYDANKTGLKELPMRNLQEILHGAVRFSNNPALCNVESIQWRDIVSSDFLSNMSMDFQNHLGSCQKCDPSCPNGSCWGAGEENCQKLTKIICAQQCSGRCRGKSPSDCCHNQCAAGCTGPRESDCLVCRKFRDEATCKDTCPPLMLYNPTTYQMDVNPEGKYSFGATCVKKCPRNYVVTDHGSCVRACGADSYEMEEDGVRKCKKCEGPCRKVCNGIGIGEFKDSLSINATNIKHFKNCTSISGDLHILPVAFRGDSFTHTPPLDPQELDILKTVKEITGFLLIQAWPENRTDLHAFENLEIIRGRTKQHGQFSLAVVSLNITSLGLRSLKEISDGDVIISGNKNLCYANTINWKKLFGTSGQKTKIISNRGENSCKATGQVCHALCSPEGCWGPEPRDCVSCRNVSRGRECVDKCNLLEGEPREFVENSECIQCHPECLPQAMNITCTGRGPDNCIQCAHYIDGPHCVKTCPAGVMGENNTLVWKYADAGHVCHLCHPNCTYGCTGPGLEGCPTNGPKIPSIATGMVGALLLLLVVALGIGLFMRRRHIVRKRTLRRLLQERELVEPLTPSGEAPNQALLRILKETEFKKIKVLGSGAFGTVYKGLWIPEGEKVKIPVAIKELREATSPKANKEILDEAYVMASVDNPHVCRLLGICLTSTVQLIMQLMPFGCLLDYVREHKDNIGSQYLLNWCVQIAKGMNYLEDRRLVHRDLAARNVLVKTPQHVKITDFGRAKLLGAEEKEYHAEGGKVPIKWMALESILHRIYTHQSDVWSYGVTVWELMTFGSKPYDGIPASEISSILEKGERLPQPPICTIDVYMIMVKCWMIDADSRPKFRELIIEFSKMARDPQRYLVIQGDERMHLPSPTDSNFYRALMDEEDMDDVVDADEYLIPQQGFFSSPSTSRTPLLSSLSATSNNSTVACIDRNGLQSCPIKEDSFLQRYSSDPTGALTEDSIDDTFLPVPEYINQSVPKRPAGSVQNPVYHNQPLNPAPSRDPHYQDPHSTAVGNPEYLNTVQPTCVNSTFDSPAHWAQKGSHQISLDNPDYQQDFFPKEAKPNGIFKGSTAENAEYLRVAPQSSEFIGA
Nature of the experiment: Western blot of EGFR protein level (degradation), H1975 cells. The settings on record: 16 hours; for EGFR degradation (EGFR level, western blot): H1975 cells, 1, 10, 50, 100, 500 nM; for DC50: H1975 cells, western blot. As to the method:
Cancer cells were planted in 12-well-plate at the density of 0.15 million cells per well with 1 mL RPMI1640 completed culture medium. Compounds with different concentrations (DMSO as a solution system, and 1 μL of compounds of different concentrations was added to 1 mL of the cell culture medium) were added to the cells planted one day before. 16 hours after treated, the medium was discarded and the cells were washed with precooled PBS. The cells were placed on ice and treated with RIPA protein lysis buffer containing halt protease and phosphatase inhibitor. After centrifugation at 10000 rpm at 4° C. for 10 minutes, the supernatant was collected. The same amount of proteins were added into 4×SDS loading buffer and heated at 95° C. for 5 minutes for denaturation, and the samples were stored at −20° C. after denaturation, or directly conducted protein electrophoresis. The 4-20% gradient preformed Electrophoretic gels were purchased from Kingsy. The electrophoresis tank and related components were purchased from Bio-rad company, and the electrophoresis condition was isobaric 120V for 2 hours. PVDF membrane was used for the transmembrane, and the whole transmembrane process was carried out on ice with a constant current of 0.4 amperes for an hour. The membrane was blocked with 5% skimmed milk dilution with TBST buffer. Refer to the corresponding antibody instructions for the specific steps of immunoblotting.
The degradation efficacy of the dacomitinib-based compounds on EGFR was determined in HCC827 and H1975 cell lines, which harboring EGFR Exon 19del and EGFR L858R+T790M mutations respectively.
In FIG. 2, concentration-dependent degradation assays were performed on non-small cell lung cancer cell line H1975 (T790M-mutant cell line, the most common mutation type of first-generation EGFR inhibitors). […] The DC50 of compounds SIAIS262032 and SIAIS262037 are both about 50 nM, which provides great potential for drug development to overcome drug resistance caused by EGFR T790M mutation.
The degradation efficacy of the canertinib-based compounds on EGFR was determined in H1975 cells with the EGFR L858R+T790M mutation.
The H1975 cells were treated with the PROTADs with different concentrations (1, 10, 50, 100, 500 nM) for 16 hours, and then the western blot assay was taken to estimate the EGFR levels of the cell lysates in each group. […] The DC50 of SIAIS262125 and SIAIS262182 are both less than 10 nM, much better than canertinib, which provides great potential for drug development to overcome drug resistance caused by EGFR T790M mutation.
(Immunoblotting shows a protein as a band on a membrane.)

Setting [7] is: Table 3, poziotinib-based compounds.
Where [8] appears, read: Table 3, poziotinib-based compounds, PC9 (Exon 19 Del).

Read-outs that look alike come from different tables or passages of the source.

Turning to `COc1cc2ncnc(Nc3ccc(Cl)c(Cl)c3F)c2cc1OC1CCNCC1` [Poziotinib derivative A (SIAIS219149), N-(3,4-dichloro-2-fluorophenyl)-7-methoxy-6-(piperidin-4-yloxy)quinazolin-4-amine], the IC50 in experiment [1] (setting [7]) is 7.1 nM; in experiment [2] (setting [8]) it was 17 nM; in experiment [3] it was 5.2 nM; in experiment [4], 81.2 nM.
The like results for `COc1cc2ncnc(Nc3ccc(Cl)c(Cl)c3F)c2cc1OC1CCN(C(=O)CCSc2cccc3c2CN(C2CCC(=O)NC2=O)C3=O)CC1` (stereo not drawn) [SIAIS219165, 3-(4-((3-(4-((4-((3,4-dichloro-2-fluorophenyl)amino)-7-methoxyquinazolin-6-yl)oxy)piperidin-1-yl)-3-oxopropyl)thio)-1-oxoisoindolin-2-yl)piperidine-2,6-dione] were, in that order, 23 nM, 3 nM, 4.6 nM and 2.7 nM.
By DC50 is commonly meant the concentration giving 50% degradation. A high value points to a less potent degrader. For the compound `COc1cc2ncnc(Nc3ccc(F)c(Cl)c3)c2cc1NC(=O)/C=C/CN1CCC(N2CCN(C(=O)CCCCCSc3cccc4c3C(=O)N(C3CCC(=O)NC3=O)C4=O)CC2)CC1` (stereo not drawn) [SIAIS262032, (E)-N-(4-((3-chloro-4-fluorophenyl)amino)-7-methoxyquinazolin-6-yl)-4-(4-(4-(6-((2-(2,6-dioxopiperidin-3-yl)-1,3-dioxoisoindolin-4-yl)thio)hexanoyl)piperazin-1-yl)piperidin-1-yl)but-2-enamide], the figures for the IC50 in experiment [1], in experiment [2] (PC9 (Exon19 Del)) and in experiment [5] were 3.3 nM, 43.5 nM and 438 nM, respectively. Besides, the “EGFR degradation (EGFR level, western blot)” value in experiment [6] was “obvious EGFR degradation efficacy”. The compound further had a DC50 in experiment [6] of roughly 50 nM.
Turning to `COc1cc2ncnc(Nc3ccc(F)c(Cl)c3)c2cc1NC(=O)/C=C/CN1CCC(N2CCN(C(=O)CCCCCCNc3cccc4c3C(=O)N(C3CCC(=O)NC3=O)C4=O)CC2)CC1` (stereo not drawn) [SIAIS262037, (E)-N-(4-((3-chloro-4-fluorophenyl)amino)-7-methoxyquinazolin-6-yl)-4-(4-(4-(7-((2-(2,6-dioxopiperidin-3-yl)-1,3-dioxoisoindolin-4-yl)amino)heptanoyl)piperazin-1-yl)piperidin-1-yl)but-2-enamide], the IC50 in experiment [1] was 1.6 nM; in experiment [2] (PC9 (Exon19 Del)), 2.1 nM; in experiment [4] it was 0.9 nM. In addition, in experiment [6], the “EGFR degradation (EGFR level, western blot)” value is reported as “obvious EGFR degradation efficacy”. This compound also yielded a half-maximal degradation concentration (DC50) in experiment [6] of roughly 50 nM.
On to `COc1cc2ncnc(Nc3ccc(Cl)c(Cl)c3F)c2cc1OC1CCN(C(=O)CCCCCCSc2cccc3c2CN(C2CCC(=O)NC2=O)C3=O)CC1` (stereo not drawn) [SIAIS219169, 3-(4-((7-(4-((4-((3,4-dichloro-2-fluorophenyl)amino)-7-methoxyquinazolin-6-yl)oxy)piperidin-1-yl)-7-oxoheptyl)thio)-1-oxoisoindolin-2-yl)piperidine-2,6-dione], for which the IC50 came to 38 nM in experiment [1] (setting [7]) and 3.6 nM in experiment [3].
`COc1cc2ncnc(Nc3ccc(Cl)c(Cl)c3F)c2cc1OC1CCN(C(=O)CCSc2cccc3c2C(=O)N(C2CCC(=O)NC2=O)C3=O)CC1` (stereo not drawn) [SIAIS249015, 4-((3-(4-((4-((3,4-dichloro-2-fluorophenyl)amino)-7-methoxyquinazolin-6-yl)oxy)piperidin-1-yl)-3-oxopropyl)thio)-2-(2,6-dioxopiperidin-3-yl)isoindoline-1,3-dione]: the IC50 in experiment [1] (setting [7]) came out at 46 nM; in experiment [2] (setting [8]), 130 nM; in experiment [3], 4.7 nM; in experiment [4] it was 87 nM.
The like results for `COc1cc2ncnc(Nc3ccc(Cl)c(Cl)c3F)c2cc1OC1CCN(C(=O)CNc2cccc3c2C(=O)N(C2CCC(=O)NC2=O)C3=O)CC1` (stereo not drawn) [SIAIS219177, 4-((2-(4-((4-((3,4-dichloro-2-fluorophenyl)amino)-7-methoxyquinazolin-6-yl)oxy)piperidin-1-yl)-2-oxoethyl)amino)-2-(2,6-dioxopiperidin-3-yl)isoindoline-1,3-dione] were, in that order, 8.2 nM, 38 nM, 2.4 nM and 35.9 nM.
As for `COc1cc2ncnc(Nc3ccc(Cl)c(Cl)c3F)c2cc1OC1CCN(C(=O)CCCSc2cccc3c2C(=O)N(C2CCC(=O)NC2=O)C3=O)CC1` (stereo not drawn) [SIAIS249016, 4-((4-(4-((4-((3,4-dichloro-2-fluorophenyl)amino)-7-methoxyquinazolin-6-yl)oxy)piperidin-1-yl)-4-oxobutyl)thio)-2-(2,6-dioxopiperidin-3-yl)isoindoline-1,3-dione], the IC50 in experiment [1] (setting [7]) was determined as 29 nM; in experiment [3] it was 1.5 nM.
